In paper PMC10994559 (PLOS Neglected Tropical Diseases, 2024):
Read-outs that look alike come from different tables or passages of the source.

Assays:
[1] = Cytotoxicity assay J774, resazurin reduction; type: cell-based, murine; settings: mouse, J774 macrophage cells
Description: Mammalian cell lines (J774 and HepG2) were passaged in RPMI media supplemented with MEM, Pen-Strep (1%) and 10% FCS. Cultures were kept at 37°C incubator with 5% CO2 in filter-cap flasks.
Murine macrophage cells (J774) and human hepatocyte carcinoma HepG2 cells were seeded at 0.5x10^5 cell/well in 384 well plates in triplicate, exposed to serial dilution of compounds, dispensed using an Echo 650 acoustic dispenser (Labcyte). After incubation for 72 h at 37°C, 5% CO2, cell viability was determined using fluorescence resazurin reduction assay (λEx: 550 nm; λEm: 590 nm).

T. cruzi trypomastigotes = test: T. cruzi viability, resazurin reduction; type: cell-based, Trypanosoma cruzi; settings: Trypanosoma cruzi
Description: T. cruzi (Y strain) trypomastigotes were passaged in liver infusion broth media supplemented with tryptose, NaCl, Na2HPO4, KCl, glucose, hemin, Pen-Strep (1%), 10% FCS (pH: 7.2) and kept at 28°C.
(§1) Viability of T. brucei brucei BSF and T. cruzi trypomastigotes was assayed with fluorescence resazurin reduction assay, essentially as described above. […] Next, selected compounds were tested at 2.5 μM concentration, and promising compounds subjected to 18 concentrations dose response analyses. AN3057 and AmB were used as a control drug in T. brucei and T. cruzi, respectively.

[2] = tested on: intracellular L. infantum amastigotes; test: Parasite rescue assay (intramacrophage, J774 infected with L. infantum); type: cell-based, Leishmania infantum; settings: Leishmania infantum, J774, rescue assay in J774, 25 µM; read-out: Residual viability, intracellular L. infantum amastigote (25 µM)
Description: After 24 h incubation, cells were washed five times with serum free RPMI and exposed to a serial dilution of test compounds, prepared using an acoustic dispenser (Echo 650, Labcyte), in RPMI (2% FCS). After two days, cells were washed thrice, and 20 μl of 0.05% SDS in RPMI was added upon removal of the supernatant. Upon incubation under orbital shaking for 30 seconds, cell lysis was stopped by addition of 180 μl M199 medium supplemented with 10% FCS. […] Then, fluorescence intensity of the samples was measured with a microplate reader (Synergy H1, BioTek) with λEx: 550 nm and λEm: 590 nm. Percent of viability was calculated according to cell only and media controls.
J774A.1 cells (J774) were infected with L. infantum metacyclic promastigotes. […] After controlled lysis of the infected macrophages, the released parasites were quantified using a resazurin based viability assay.

L. major promastigotes = test: L. major promastigote viability, resazurin reduction; type: cell-based, Leishmania major; settings: Leishmania major
Description: (§2) The infectivity of the parasites was boosted by passaging in Balb/c mice and culturing the infected lymph nodes after six weeks. L. infantum (MHOM / BR / 76 / M4192) parasite was passaged in the same media formulation with 0.5% urine.

[3] = tested on: L. infantum promastigotes; test: L. infantum promastigote viability, resazurin reduction; type: cell-based, Leishmania infantum; settings: Leishmania infantum
Description: as §2

E. histolytica = E. histolytica viability, ATP luminescence (Cell titer glo); type: cell-based, Entamoeba histolytica; settings: Entamoeba histolytica; for EC50: 9 to 16-point dose response
Description: Entamoeba histolytica (strain B2-5) was passaged in TY-1 medium (Trypticase peptone BBL, Yeast extract BBL, glucose, NaCl, K2HPO4, KH2PO4, cysteine, ascorbic acid, ammonium iron citrate, adult bovine serum, Diamond tween 80, penicillin G, amikacin (pH:6.8)) and kept in 37°C incubator in completely filled tubes with closed lid.
Viability of E. histolytica was assayed via a luminescence assay based on ATP quantification in the live cells. Briefly, 2.5x10^4 cell/ml were exposed to 25 μM of compounds in 96 well plates (non-transparent, tissue culture treated, flat bottom; SPL Life Sciences) in triplicate for 48h. Plates were incubated in sealed anaerobic bags (Oxoid AGS) together with an Anaerogen compact bag (Thermo Scientific) and anaerobic indicator (Thermo Scientific) at 37°C. Then, Cell titer glo reagent (Promega) was added to the reaction (1:5) according to manufacturers’ instruction. After 15 min of orbital shaking, followed by 10 min incubation at RT, ATP-bioluminescence was quantified at RT using a Synergy H1 plate reader (Synergy H1, BioTek). Metronidazole was included as control drug in all the assays for E. histolytica. Test compounds indicating significant growth reduction in the primary screen were subjected to potency determination. These secondary screens were essentially carried out as detailed above, but with a 9 to 16-point concentration range of the test compounds spanning 0.01–100 μM.

T. brucei brucei BSF = test: T. brucei BSF viability, resazurin reduction; type: cell-based, Trypanosoma brucei brucei; settings: Trypanosoma brucei; for EC50: read-out: EC50 T. brucei BSF, dose response, triplicate, ± SD (Table 2) / ± SE (S3 Table)
Description: T. brucei brucei (strain 427 Lister) blood stream form (BSF) parasites were passaged in complete HMI-9 media supplemented with 10% FCS, Pen-Strep (0.1%) and 2-mercaptoethanol (0.014 v/v) and kept in a 37° C CO2 incubator in filter-cap flasks.
as §1

[4] = tested on: L. major axenic amastigotes; test: L. major axenic amastigote viability, resazurin reduction; settings: Leishmania major
Description: L. major LV561(MHOM/IL/67/LRC-L137 JERICHO II) amastigotes were passaged in Grace insect medium supplemented with NaHCO3, 0.1% amikin and 20% of FCS (pH: 5.4) and kept at 33°C.
Exponential growth phase promastigotes of L. major or L. infantum and axenic amastigotes (L. major) were harvested and seeded in 384 well plates (white, non-transparent, tissue culture treated, flat bottom; Corning) (0.5x10^5 cells per well). Compounds were pre-dispensed into the plate with an Echo 650 acoustic dispenser (Beckman Coulter). After 72h incubation, resazurin was added (1:10 v/v) from a […] stock in PBS, followed by incubation for six hours. Then, fluorescence intensity was measured using a microplate reader (Synergy H1, BioTek) with excitation filter: 550 nm and emission filter: 590 nm. Efficient compounds were selected for the next round of viability assay with 2.5 μM concentrations of the compounds. […] All experiments were performed with AmB as a positive control drug in parallel.
Axenic amastigotes, the relevant form that persists in the infected host, were generated in the lab through established procedures, employing harsh pH (pH 5) and high temperature (33°C) conditions.

[5] = tested on: intracellular L. infantum amastigotes; test: Parasite rescue assay (intramacrophage, J774 infected with L. infantum); type: cell-based, Leishmania infantum; settings: J774, 25 µM; intracellular amastigote; read-out: viability, intracellular L. major amastigote (25 µM)
[6] = read-out: viability, J774 (2.5 µM)
[7] = read-out: viability, J774 (25 µM)
[8] = read-out: viability, T.cruzi (2.5 µM)
[9] = 25 µM, read-out: viability, T.cruzi (25 µM)
[10] = 72 h, read-out: viability, L.major promastigote (25 µM)
[11] = 25 µM, read-out: viability, L.major promastigote (25 µM)
[12] = sheet LTC_compound_viability, value ± spread, read-out: viability, L. infantum promastigote (2.5 µM)
[13] = sheet LTC_compound_viability, value ± spread, read-out: viability, L. infantum promastigote (25 µM)
[14] = read-out: viability, E.histolytica (2.5 µM)
[15] = read-out: viability, E.histolytica (25 µM)
[16] = read-out: viability, T.brucei (2.5 µM)
[17] = read-out: viability, T.brucei (25 µM)
[18] = read-out: viability, L.major amastigote (25 µM)

SMILES: CC[C@@H](C)[C@H](c1nc2ccccc2n1Cc1cn(-c2c(F)c(F)c(F)c(F)c2F)nn1)N1C(=O)c2ccccc2C1=O [PHT-41]
- viability at 72 h, 2.5 µM ([1]; cytotoxicity, 72 h, read-out: Residual viability, J774 (2.5 µM)): 96.1 ± 3.84%
- viability at 72 h, 25 µM ([1]; cytotoxicity, 72 h, read-out: Residual viability, J774 (25 µM)): 86.1 ± 5.26%
- viability at 2.5 µM (T. cruzi trypomastigotes; 72 h, 72 h, read-out: Residual viability, T.cruzi (2.5 µM)): 64.5 ± 2.58%
- viability at 25 µM (T. cruzi trypomastigotes; 72 h, read-out: Residual viability, T.cruzi (25 µM), 25 µM, 72 h): 22.7 ± 0.63%
- viability at 25 µM [2]: 81.4 ± 2.86%
- viability at 25 µM (L. major promastigotes; 25 µM, 72 h, vs non-treated cells, read-out: Residual viability, L.major promastigote (25 µM)): 21.5 ± 1.47%
- viability at 2.5 µM ([3]; 72 h, vs non-treated cells, read-out: Residual viability, L. infantum promastigote (2.5 µM)): 54.6 ± 1.29%
- viability at 25 µM ([3]; 72 h, vs non-treated cells, ± SD, triplicate, read-out: Residual viability, L. infantum promastigote (25 µM)): 12.4 ± 1.22%
- viability at 2.5 µM (E. histolytica; 2.5 µM, 48 h, read-out: Residual viability, E.histolytica (2.5 µM)): 110 ± 24.2%
- viability at 25 µM (E. histolytica; 25 µM, 48 h, read-out: Residual viability, E.histolytica (25 µM)): 53.3 ± 1.97%
- viability at 2.5 µM (T. brucei brucei BSF; 72 h, BSF, 72 h, read-out: Residual viability, T.brucei (2.5 µM)): 57.4 ± 11%
- viability at 25 µM (T. brucei brucei BSF; 72 h, BSF, 72 h, read-out: Residual viability, T.brucei (25 µM)): 3.15 ± 3%
- viability at 2.5 µM ([4]; 72 h, read-out: Residual viability, L.major amastigote (2.5 µM)): 64.8 ± 5.36%
- viability at 25 µM ([4]; 72 h, read-out: Residual viability, L.major amastigote (25 µM)): 4.6%
- EC50 ([4]; read-out: EC50 L. major axenic amastigote): 3.6 ± 2.1 µM

SMILES: O=C(Cc1ccc2ccccc2c1)NC(Cc1ccccc1)C(O)CN1CCN(Cc2ccccc2)CC1 (stereo not drawn) [LTC-6]
- viability at 72 h, 2.5 µM [1, 6]: 106 ± 6.66%
- viability at 72 h, 25 µM [1, 7]: 2.99 ± 2.56%
- viability at 25 µM [5]: 47.3 ± 9.73%
- viability at 2.5 µM (T. cruzi trypomastigotes; [8]): 56.4 ± 4.53%
- viability at 25 µM (T. cruzi trypomastigotes; [9]): 18.4 ± 1.57%
- viability at 25 µM (L. major promastigotes; [10]): 66.2 ± 3.33%
- viability at 25 µM (L. major promastigotes; [11]): 0.62 ± 0.39%
- viability at 2.5 µM [3, 12]: 100.6 ± 0.6%
- viability at 25 µM [3, 13]: 0.37 ± 0.06%
- EC50 (E. histolytica; 48 h): 4.9 ± 1.8 µM
- viability at 2.5 µM (E. histolytica; [14]): 86.8 ± 20.5%
- viability at 25 µM (E. histolytica; [15]): 2.71 ± 1.39%
- viability at 2.5 µM (T. brucei brucei BSF; [16]): 91 ± 5.89%
- viability at 25 µM (T. brucei brucei BSF; [17]): 2.92 ± 1.26%
- EC50 (T. brucei brucei BSF): 5.6 ± 1.7 µM
- viability at 25 µM [4, 18]: 73.5 ± 1.98%

SMILES: O=C(Cc1cccc(C(F)(F)F)c1)NC(Cc1ccccc1)C(O)CN1CCN(Cc2ccccc2)CC1 (stereo not drawn) [LTC-8]
- viability at 72 h, 2.5 µM [1, 6]: 102 ± 8.6%
- viability at 72 h, 25 µM [1, 7]: 4.16 ± 2.39%
- viability at 25 µM [5]: 67.2 ± 5.73%
- viability at 2.5 µM (T. cruzi trypomastigotes; [8]): 59.3 ± 1.4%
- viability at 25 µM (T. cruzi trypomastigotes; [9]): 33.8 ± 0.8%
- viability at 25 µM (L. major promastigotes; [10]): 67.5 ± 1.55%
- viability at 25 µM (L. major promastigotes; [11]): 0.28 ± 0.16%
- viability at 2.5 µM [3, 12]: 101 ± 1.24%
- viability at 25 µM [3, 13]: 0.96 ± 0.46%
- EC50 (E. histolytica; 48 h): 4.4 ± 1.7 µM
- viability at 2.5 µM (E. histolytica; [14]): 60.3 ± 6.76%
- viability at 25 µM (E. histolytica; [15]): 0.54 ± 0.81%
- viability at 2.5 µM (T. brucei brucei BSF; [16]): 98.5 ± 6.21%
- viability at 25 µM (T. brucei brucei BSF; [17]): 3.15 ± 1.45%
- EC50 (T. brucei brucei BSF): 7.3 ± 1.7 µM
- viability at 25 µM [4, 18]: 75.1 ± 2.03%

SMILES: O=C(CCc1ccc(Br)cc1)NC(Cc1ccccc1)C(O)CN1CCN(Cc2ccccc2)CC1 (stereo not drawn) [LTC-10]
- viability at 72 h, 2.5 µM [1, 6]: 99.9 ± 5.33%
- viability at 72 h, 25 µM [1, 7]: 2.99 ± 1.94%
- viability at 25 µM [5]: 33.7 ± 12%
- viability at 2.5 µM (T. cruzi trypomastigotes; [8]): 61.1 ± 6.21%
- viability at 25 µM (T. cruzi trypomastigotes; [9]): 21.5 ± 1.69%
- viability at 25 µM (L. major promastigotes; [10]): 65.1 ± 3.01%
- viability at 25 µM (L. major promastigotes; [11]): 0.71 ± 1%
- viability at 2.5 µM [3, 12]: 100.8 ± 0.96%
- viability at 25 µM [3, 13]: 0.85 ± 0.33%
- EC50 (E. histolytica; 48 h): 6.5 ± 1.7 µM
- viability at 2.5 µM (E. histolytica; [14]): 73.2 ± 7%
- viability at 25 µM (E. histolytica; [15]): 4.28 ± 0.62%
- viability at 2.5 µM (T. brucei brucei BSF; [16]): 99.8 ± 6.25%
- viability at 25 µM (T. brucei brucei BSF; [17]): 2.86 ± 1.31%
- EC50 (T. brucei brucei BSF): 6 ± 1.7 µM
- viability at 25 µM [4, 18]: 74.2 ± 2.26%
